In patent publication US6306853A, “1,4-Dihydropyridine derivatives” (Nikken Chemicals Co., Ltd., priority 1998, dated 2001):

Tests used:
[1] = test system: VCR resistant murine leukemia (P388/VCR) cells; test: In vivo overcoming of resistance in VCR resistant murine leukemia (P388/VCR) bearing mice, etoposide with compound 20 mg/kg; design: species or system CDF1 female mice; conditions: VP-16 3 mg/kg + compound 20 mg/kg, i.v. once per day for 5 days; for Rate of prolongation of life T/C: vs control
Method: In Vivo Test of Action Suppressing Proliferation of Cancer Cells by Combined Administration of Anti-cancer Drug Etoposide
Effect of Overcoming Resistance to an Anti-cancer Drug for VCR Resistant Murine Leukemia Cell Bearing Mice
(§1) 1.2×10^5 VCR resistant murine leukemia (P388/VCR) cells were transplanted intravenously into groups of 5-6 CDF1 female mice, then the compound of the present invention (20 mg/kg) and Etoposide (VP-16) (3 mg/kg) were administered intravenously once per day for 5 days, after dissolving them in a physiological salt solution containing a small amount of hydrochloric acid. The observation was started from the next day. The number of survival days were found and the life prolonging rate (T/C) with respect to the controls was found. The effect in overcoming resistance to an anti-cancer drug (T/V) was found by the following formula.
(§2) Effect of overcoming resistance to the anti-cancer drug (T/V) %
(§3) =[(Rate of prolongation of life using VP-16 and the present compound (T/C))/(Rate of prolongation of life using VP-16 alone (T/C))]×100

[2] = test system: VCR resistant murine leukemia (P388/VCR) cells; test: In vivo overcoming of resistance in VCR resistant murine leukemia (P388/VCR) bearing mice, etoposide with compound 10 mg/kg; design: species or system CDF1 female mice; conditions: VP-16 3 mg/kg + compound 10 mg/kg; for Effect of overcoming resistance T/V: vs VP-16 alone; for Rate of prolongation of life T/C: vs control
Method: as §1, §2, §3
In Vivo Test of Action Suppressing Proliferation of Cancer Cells by Combined Administration of Anti-Cancer Drug Etoposide
The Test Example 3 was repeated using 10 mg/kg administration of the present compound and the effects of overcoming resistance to the anti-cancer drug were determined from the average days of survival.

Row | SMILES | Average days of survival [1] [days] | Rate of prolongation of life T/C [1] [%] | Average days of survival [2] [days] | Effect of overcoming resistance T/V [2] [%] | Rate of prolongation of life T/C [2] [%]
1 | CCOC(=O)C1=C(c2ccc(-n3c(C)nc4cnccc43)cc2)NC(C)=C(C(=O)OCC#Cc2cccnc2)C1C1CCCCC1 (stereo not shown) [Compound 4, 4-Cyclohexyl-6-methyl-2-[4-(2-methylimidazo[4,5-c]pyridin-1-yl)phenyl]-1,4-dihydropyridin-3,5-dicarboxylate 3-ethylester 5-[3-(3-pyridyl)-2-propynyl]ester] | 14.8 | 161 |  |  | 
2 | CCOC(=O)C1=C(c2ccc(-n3c(C)nc4cnccc43)cc2)NC(C)=C(C(=O)OCC#Cc2cccnc2)C1C(C)c1ccccc1 (stereo not drawn) [Compound 7, 6-Methyl-4-(α-methylbenzyl)-2-[4-(2-methylimidazo[4,5-c]pyridin-1-yl)phenyl]-1,4-dihydropyridin-3,5-dicarboxylate 3-ethylester 5-[3-(3-pyridyl)-2-propynyl]ester] | 13.4 | 146 |  |  | 
3 | CCOC(=O)C1=C(c2ccc(-n3c(C)nc4cnccc43)cc2)NC(C)=C(C(=O)OCC#Cc2cccnc2)C1/C=C/c1ccccc1 (stereo not shown) [Compound 10, 6-Methyl-2-[4-(2-methylimidazo[4,5-c]pyridin-1-yl)phenyl]-4-[(E)-2-phenylethenyl]-1,4-dihydropyridin-3,5-dicarboxylate 3-ethylester 5-[3-(3-pyridyl)-2-propynyl]ester] | 17.0 | 185 |  |  | 
4 | CCOC(=O)C1=C(c2ccc(-n3c(C)nc4cnccc43)cc2)NC(C)=C(C(=O)OCC#Cc2cccnc2)C1CCc1ccccc1Cl (stereo not shown) [Compound 11, 4-[2-(2-Chlorophenyl)ethyl]-6-methyl-2-[4-(2-methylimidazo[4,5-c]pyridin-1-yl)phenyl]-1,4-dihydropyridin-3 ,5-dicarboxylate 3-ethylester 5-[3-(3-pyridyl)-2-propynyl]ester] | 15.8 | 155 |  |  | 
5 | CCOC(=O)C1=C(c2ccc(-n3c(C)nc4cnccc43)cc2)NC(C)=C(C(=O)OCC#Cc2cccnc2)C1/C=C/c1ccccc1Cl (stereo not shown) [Compound 12, 4-[(E)-2-(2-chlorophenyl)ethenyl]-6-methyl-2-[4-(2-methylimidazo[4,5-c]pyridin-1-yl)phenyl]-1,4-dihydropyridin-3,5-dicarboxylate 3-ethylester 5-[3-(3pyridyl)-2-propynyl]ester] | 16.8 | 165 |  |  | 
6 | CCOC(=O)C1=C(c2ccc(-n3c(C)nc4cnccc43)cc2)NC(C)=C(C(=O)OCC#Cc2cccnc2)C1CCc1ccccc1OC (stereo not shown) [Compound 13, 4-[2-(2-methoxyphenyl)ethyl]-6-methyl-2-[4-(2-methylimidazo[4,5-c]pyridin-1-yl)phenyl]-1,4-dihydropyridin-3,5-dicarboxylate 3-ethylester 5-[3-(3-pyridyl)-2-propynyly]ester] | 15.7 | 154 |  |  | 
7 | CCOC(=O)C1=C(c2ccc(-n3c(C)nc4cnccc43)cc2)NC(C)=C(C(=O)OCC#Cc2cnc3ccccc3c2)C1CCc1ccccc1 (stereo not shown) [Compound 18, 6-Methyl-2-[4-(2-methylimidazo[4,5-c]pyridin-1-yl)phenyl]-4-(2-phenylethyl)-1,4-dihydropyridin-3,5-dicarboxylate 3-ethylester 5-[3-(3-quinolyl)-2-propynyl]ester] | 16.0 | 157 |  |  | 
8 | CCOC(=O)C1=C(c2ccc(-n3c(C)nc4cnccc43)cc2)NC(C)=C(C(=O)OCC#Cc2cnc3ccccc3c2)C1/C=C/c1ccccc1 (stereo not shown) [Compound 19, 6-Methyl-2-[4-(2-methylimidazo[4,5-c]pyridin-1-yl)phenyl]-4-[(E)-2-(2-phenyl)ethenyl]-1,4-dihydropyridin-3,5-dicarboxylate 3-ethylester 5-[(3-quonolyl)-2-propynyl]ester] | 16.0 | 157 |  |  | 
9 | CCOC(=O)C1=C(c2ccc(-n3c(C)nc4cnccc43)cc2)NC(C)=C(C(=O)OCC#Cc2cncc3ccccc23)C1/C=C/c1ccccc1 (stereo not shown) [Compound 20] | 14.7 | 144 |  |  | 
10 | CCOC(=O)C1=C(c2ccc(-n3c(C)nc4cnccc43)cc2)NC(C)=C(C(=O)OC(C)C#Cc2cccnc2)C1CCc1ccccc1 (stereo not shown) [Compound 23, 6-Methyl-2-[4-(2-methylimidazo[4,5-c]pyridin-1-yl)phenyl]-4-(2-phenylethyl)-1,4-dihydropyridin-3,5-dicarboxylate 3-ethylester 5-[1-methyl-3-(3-pyridyl)-2-propynyl]ester] | 15.8 | 172 | 13.0 | 123 | 125
11 | CCOC(=O)C1=C(c2ccc(-n3c(C)nc4cnccc43)cc2)NC(C)=C(C(=O)OCCC#Cc2cccnc2)C1CCc1ccccc1 (stereo not shown) [Compound 47, 6-Methyl-2-[4-(2-methylimidazo[4,5-c]pyridin-1-yl)phenyl]-4-(2-phenylethyl)-1,4-dihydropyridin-3,5-dicarboxylate 3-ethylester 5-[4-(3-pyridyl)-3-butynyl]ester] | 15.2 | 148 |  |  | 
12 | CCOC(=O)C1=C(c2ccc(-n3c(C)nc4cnccc43)cc2)NC(C)=C(C(=O)OCC#Cc2cccnc2)C1CC(c1ccccc1)c1ccccc1 (stereo not shown) [Compound 60] | 16.3 | 158 |  |  | 
13 | CCOC(=O)C1=C(c2ccc(-n3c(C)nc4cnccc43)cc2)NC(C)=C(C(=O)OCC#Cc2cccnc2)C1CC1c2ccccc2C2C(c3ccccc31)C2(F)F (stereo not shown) [Compound 66, 4-(1,1-Difluoro-1,1a,6, 10b-tetrahydrodibenzoa,[a,e]cyclopropa[c]cyclohepten-6-ylmethyl)-6-methyl-2-[4-(2-methylimidazo[4,5-c]pyridin-1-yl)phenyl]-1,4-dihydropyridin-3,5-dicarboxylate 3-ethylester 5-[3-(3-pyridyl)-2-propynyl]ester] | 14.5 | 141 |  |  | 
14 | CCOC(=O)C1=C(c2ccc(-n3c(C)nc4cnccc43)cc2)NC(C)=C(C(=O)OCC#Cc2cccnc2)C1C=C1c2ccccc2C2C(c3ccccc31)C2(F)F (stereo not shown) [Compound 67, 4-(1,1-Difluoro-1,1a,6,10b-tetrahydrodibenzo[a,e]cyclopropa[c]cyclohepten-6-ylidenemethyl)-6-methyl-2-[4-(2-methylimidazo[4,5-c]pyridin-1-yl)phenyl]-1,4-dihydropyridin-3,5-dicarboxylate 3-ethylester 5-[3-(3-pyridyl)-2-propynyl]ester] | 14.3 | 139 |  |  | 
15 | CCOC(=O)C1=C(c2ccc(-n3c(C(C)C)nc4cnccc43)cc2)NC(C)=C(C(=O)OCC#Cc2cccnc2)C1CC(c1ccccc1)c1ccccc1 (stereo not shown) [Compound 71, 4-(2,2-Diphenylethyl)-2-[4-(2-isopropylimidazo[4,5-c]pyridin-1-yl)phenyl]-6-methyl-1,4-dihydropyridin-3,5-dicarboxylate 3-ethylester 5-[3-(3-pyridyl)-2-propynyl]ester] |  |  | 17.4 | 164 | 167
16 | CCOC(=O)C1=C(c2ccc(-n3c(C)nc4cnccc43)cc2)NC(C)=C(C(=O)OCC#Cc2cccnc2)C1CC(c1ccc(F)cc1)c1ccc(F)cc1 (stereo not shown) [Compound 78] |  |  | 14.2 | 134 | 137
